Results on two compounds are retold here after patent publication US20090162314A1, “Magnesium-Containing Polymers for the Treatment of Hyperphosphatemia” (priority 2005, published 2009).

For the experiment, the system named is urinary phosphate. Briefly: In vivo phosphate binding: urinary phosphate levels in rats fed test compound in diet. Set-up: species or system Sprague Dawley (SD) rats. The conditions noted are these: SD rats, urine days 5 and 6, cellulose control. As to the method: House male Sprague Dawley (SD) rats were used for the experiments. The rats were placed singly in wire-bottom cages, fed with Purina 5002 diet, and allowed to acclimate for at least 5 days prior to experimental use.
To establish baseline phosphorus excretion, the rats were placed in metabolic cages for 48 hours. Their urine was collected and its phosphorus content analyzed with a Hitachi analyzer to determine phosphorus excretion in mg/day. Any rats with outlying values were excluded; and the remainder of the rats was distributed into groups.
Purina 5002 was used as the standard diet. The compound being tested was mixed with Purina 5002 to result in a final concentration by weight as noted in the table. Cellulose at 0.5% by weight was used as a negative control. For each rat, 200 g of diet was prepared.
Each rat was weighed and placed on the standard diet. After 4 days the standard diet was replaced with the treatment diet (or control diet for the control group). On days 5 and 6, urine samples from the rats at 24 hours (+/−30 minutes) were collected and analyzed. The test rats were again weighed, and any weight loss or gain was calculated. Any remaining food was also weighed to calculate the amount of food consumed per day. A change in phosphorus excretion relative to baseline and cellulose negative control was calculated using Excel program.

Turning to `[Cl-].[Cl-].[Mg+2]` [MgCl2], the “% Urinary Phosphate Relative to that of Control Animals” value (2.38 % of diet) came out at 57.0%.

In the case of `[Mg+2].[O-2]` [MgO], the “% Urinary Phosphate Relative to that of Control Animals” value is reported as 61.6% (0.20 % of diet); 69.3% (0.25 % of diet); 54.8% (0.30 % of diet); 26.1% (0.40 % of diet); 3.6% (1.00 % of diet).
